Here are results for 7 compounds from patent US20080057010A1, “METHOD FOR SKIN CARE” (NULIV SCIENCE LTD., priority 2006, published 2008).

The subject of one experiment is HaCaT cells. The experiment is described as follows: Glucosamine uptake assay in HaCaT cells. The class given is cell-based, human. The conditions noted are these: 0.1 μM; for Uptake rate (glucosamine): 48 h treatment; for Percentage (%) of control glucosamine uptake: relative to control. On the procedure:
In glucosamine uptake test, HaCaT cells were seeded into 24-well plate at a density of 3×10^4 cells/well and cultured for 24 h. The cells were then treated in the absence (solvent control) or presence of various concentrations of astragalosides for another 48 h. The treated cells were then washed twice with PBS and incubated in glucose and serum free medium (GSFM). After 2 h, the cells were replaced with fresh GSFM containing 0.2 μCi of [^14C]-Glucosamine (American Radiolabelled Chemicals Inc, ARC, St. Louis, Mo., USA). At the designated time interval, the cells were washed twice with GSFM containing cold glucosamine and then lysed in 200 μL 2% SDS. Cell lysates were centrifuged at 15000 g for 15 min. Intracellular uptaken glucosamine was determined by transferring 10 μL of the cell lysate to filter-bottemed UniFilter plates (Perkim-Elmer) and counted. Protein concentration of the samples was measured using the BCA protein assay kit as described above. Glucosamine accumulated in the cells was calculated and normalized to protein concentration and uptake rate was expressed as counts per minute per microgram of cell protein (cpm/min/μg).

The test system of another experiment is MMP-1. The experiment is described as follows: Quantitative analysis of MMP-1 transcripts in HDF cells (qRT-PCR). The class given is cell-based, human. The conditions noted are these: 0.1 μM, MMP-1 mRNA relative to 0 = 1.00. On the procedure:
Relative levels of MMP-1 expression in HDF cells were determined by qRT-PCR. Preparation of total RNA and cDNA were carried out as described in previous sections. qRT-PCR was performed using the Applied Biosystem 7300 system and pre-developed Taqman Gene Expression Assays (Applied Biosystems, Foster City, Calif., USA). The reaction was performed as described in previous sections except that primer mix for human MMP-1 (assay ID HS00233958_m1, Applied Biosystems) and GAPDH (assay ID Hs99999905_m1, Applied Biosystems) were used.
Results shown in Tables 6A and 6B represent the quantitated data from zymography analysis of MMP-2 protein in HaCaT cells and qRT-PCR for MMP-1 in HDF cells. The concentrations used were 0, 0.01. 0.1, 1 μM (if not indicated otherwise) for pure compounds; and were 0, 1, 10, 40 μg/mL for crude extract (if not indicated otherwise). The cells were treated with the indicated compounds for 24 h before harvested for analysis of Pro-MMP-2 or activated MMP-2 in whole cell extract. Fifty micrograms of the cell extract samples were used for electrophoresis.

A further experiment has as its system collagen III. The experiment is described as follows: Collagen III expression and secretion in human HaCaT cells (western blot). The conditions noted are these: relative to 0 = 1.00. The class given is cell-based. On the procedure:
The Spontaneously transformed human keratinocyte cell lines HaCaT cells were grown at 37° C. in a humidified incubator under 5% CO2 and 95% air in culture medium such as Dulbecco Modified Eagle Medium (DMEM) supplemented with 10% Fetal Bovine Serum (FBS), 100 IU/mL penicillin, 100 μg/mL of streptomycin, 2 mM sodium pyruvate and 1% Non-Essential Amino Acids (NEAA). The culture medium was replaced every other day. After confluence, the cells were subcultured following trypsinization. For subcultures cells were harvested after brief treatment with 0.1% trypsin/ethylenediaminetetraacetic acid (EDTA) solution and seeded at a dilution of 1:10. Cells between passages 12 and 45 were used for studies. The cells were seeded and incubated for 24 h before treated with the astragalosides for 24 h. Control cultures were maintained in medium supplemented with vehicle (dimethyl sulfoxide (DMSO) 0.1%). No growth and differentiation effects of DMSO were observed under these culture conditions.
The cells were treated with pure compounds such as astragaloside I (AS 1), astragaloside II (AS2), astragaloside III (AS3), astragaloside IV (AS4), astragaloside VI (AS6), isoastragaloside I (isoAS1), isoastragaloside II (isoAS2), and cycloastragenol 6-O-β-D-glucopyranose (AA) at concentrations of 0-10 μM. Alternatively, the cells were also treated with the crude extracts, such as butanol fraction and water insoluble fraction of Astragalus membranaceus at concentrations of 0, 1, 10, and 40 μg/mL. The cells were treated with the indicated compounds or the extracts for 24 h before harvested for analysis of collagen I and III expressed in the whole cell extract or secreted into the culture medium.
Western blot analysis was carried out on both of cultured medium and cell lysates. The cells were plated on 6-cm dishes at a density of 1×10^6 cells/dish for 24 h prior to treatment with indicated concentrations of astragalus triterpenoids as indicated for another 48 h. The conditioned culture mediums were then centrifuged, 2-fold concentrated and collected for assay of collagens and MMPs secreted into the culture medium. The cells were washed and lysed in 0.2 mL of lysis buffer (1% NP-40, 50 mM Tris-HCl, pH 7.4, 180 mM NaCl, 1 mM EDTA, 1 mM PMSF, 1 mM NaF, 10 mM Na3VO4) for 30 min at 4° C. After centrifuging at 17500 g for 15 min, the supernatants of cell lysate were also collected. Protein concentration of the samples were measured using the bicinchoninic acid (BCA) protein assay kit according to the manufacturer's protocol (Pierce, Rockford, Ill., USA). Equal amount of protein samples of concentrated conditioned medium (100 μg) or cell lysate supernatants (50 μg) were mixed with an appropriate volume of 4×SDS sampling buffer and separated by 8% SDS-PAGE gel. The protein bands separated in the SDS-PAGE gel were blotted onto a polyvinylidene fluoride (PVDF) membrane. The blotted PVDF membrane was washed twice and blocked in freshly prepared Tris-buffered saline (TBS) containing 0.1% Tween-20 and 7% skim milk (TBST) for 2 h at room temperature. The PVDF membrane was then incubated with either antibodies against collagen I and III or the housekeeping protein α-tubulin (Santa Cruz Biotechnology, Santa Cruz, Calif.) for 18 h at 4° C. Horseradish peroxidase-conjugated anti-goat antibody was used as secondary antibody. Signals were visualized by an enhanced chemiluminescence kit (Clonetech, Palo Alto, Calif., USA) followed by exposure to X-ray films.
The collagen III was also over-expressed in the human HaCaT cells treated with different doses (0.01, 0.1 and 1 μM) of the astragalosides, such as AS1, AS2 and AS3. Similarly, the collagen III was over-expressed in the human HaCaT cells treated with various dosages (1, 10 and 40 μg/mL) of the crude extract as shown in Table 1B. On the other hand, the amount of collagen III secreted into the medium was measured to determine the effect on cellular release of collagen III. […]
A general note: In western blotting, separated proteins are transferred to a membrane and probed.

On to `CC(=O)O[C@H]1[C@H](O[C@H]2CC[C@]34C[C@]35CC[C@]3(C)[C@@H]([C@@]6(C)CC[C@@H](C(C)(C)O)O6)[C@@H](O)C[C@@]3(C)[C@@H]5C[C@H](O[C@@H]3O[C@H](CO)[C@@H](O)[C@H](O)[C@H]3O)[C@H]4C2(C)C)OC[C@@H](O)[C@@H]1O` [AS2, astragaloside II], for which the “Uptake rate (glucosamine)” value in the experiment on HaCaT cells came out at 0.9561 ± 0.0918 CPM/μg protein. For the same compound, the “Percentage (%) of control glucosamine uptake” value (“Percentage (%)” below) with HaCaT cells turned out to be 116.00%. In the experiment with MMP-1, the “MMP-1 Q-PCR” value came out at 0.25. Further, the “Collagen III in cell” value with collagen III (0.01 μM) stood at 1.36; in the experiment with collagen III (0.1 μM), 1.44; in the experiment on collagen III (1 μM), 1.49.

For `CC(C)(O)[C@@H]1CC[C@](C)([C@H]2[C@@H](O)C[C@@]3(C)[C@@H]4C[C@H](O)[C@H]5C(C)(C)[C@@H](O[C@@H]6OC[C@@H](O)[C@H](O)[C@H]6O[C@@H]6O[C@H](CO)[C@@H](O)[C@H](O)[C@H]6O)CC[C@@]56C[C@@]46CC[C@]23C)O1` [AS3, astragaloside III], in the experiment with HaCaT cells, the “Uptake rate (glucosamine)” value is 1.0129 ± 0.0371 CPM/μg protein. Also, the “Percentage (%)” value with HaCaT cells is 122.90%. For the same compound, the “Collagen III in cell” value is on record as 0.86 in the experiment on collagen III (0.01 μM), 1.22 in the experiment with collagen III (0.1 μM) and 2.12 in the experiment with collagen III (1 μM).

`CC(C)(O)[C@@H]1CC[C@](C)([C@H]2[C@@H](O)C[C@@]3(C)[C@@H]4C[C@H](O[C@@H]5O[C@H](CO)[C@@H](O)[C@H](O)[C@H]5O)[C@H]5C(C)(C)[C@@H](O[C@@H]6OC[C@@H](O)[C@H](O)[C@H]6O)CC[C@@]56C[C@@]46CC[C@]23C)O1` [AS4, astragaloside IV]: the “Uptake rate (glucosamine)” value with HaCaT cells is on record as 0.8931 ± 0.0918 CPM/μg protein. Moreover, the “Percentage (%)” value with HaCaT cells is 108.36%. Besides, the “Collagen III in medium” value is recorded as 0.79 with collagen III (0.01 μM), 1.13 in the experiment with collagen III (0.1 μM) and 1.16 with collagen III (1 μM).

For the compound `CC(C)(O)[C@@H]1CC[C@](C)([C@H]2[C@@H](O)C[C@@]3(C)[C@@H]4C[C@H](O[C@@H]5O[C@H](CO)[C@@H](O)[C@H](O)[C@H]5O)[C@H]5C(C)(C)[C@@H](O[C@@H]6OC[C@@H](O)[C@H](O)[C@H]6O[C@@H]6O[C@H](CO)[C@@H](O)[C@H](O)[C@H]6O)CC[C@@]56C[C@@]46CC[C@]23C)O1` [AS6, astragaloside VI], in the experiment on HaCaT cells, the “Uptake rate (glucosamine)” value turned out to be 0.8471 ± 0.0278 CPM/μg protein. Moreover, the “Percentage (%)” value in the experiment on HaCaT cells turned out to be 102.78%. Also, the “Collagen III in medium” value stood at 4.55 in the experiment with collagen III (0.01 μM), 4.27 in the experiment with collagen III (0.1 μM) and 3.86 with collagen III (1 μM).

With `CC(=O)O[C@H]1[C@H](O[C@H]2CC[C@]34C[C@]35CC[C@]3(C)[C@@H]([C@@]6(C)CC[C@@H](C(C)(C)O)O6)[C@@H](O)C[C@@]3(C)[C@@H]5C[C@H](O[C@@H]3O[C@H](CO)[C@@H](O)[C@H](O)[C@H]3O)[C@H]4C2(C)C)OC[C@@H](OC(C)=O)[C@@H]1O` [isoAS1, isoastragaloside I], the “Uptake rate (glucosamine)” value with HaCaT cells is listed as 0.9589 ± 0.0665 CPM/μg protein. In addition, the “Percentage (%)” value in the experiment with HaCaT cells came to 116.34%. Also, in the experiment on MMP-1, the “MMP-1 Q-PCR” value is 0.6. Further, the results for the “Collagen III in medium” value in the experiment with collagen III (0.01 μM), in the experiment on collagen III (0.1 μM) and with collagen III (1 μM) were 3.32, 4.41 and 6.53, respectively.

Take `CC(=O)O[C@@H]1[C@@H](O)[C@H](O[C@H]2CC[C@]34C[C@]35CC[C@]3(C)[C@@H]([C@@]6(C)CC[C@@H](C(C)(C)O)O6)[C@@H](O)C[C@@]3(C)[C@@H]5C[C@H](O[C@@H]3O[C@H](CO)[C@@H](O)[C@H](O)[C@H]3O)[C@H]4C2(C)C)OC[C@H]1O` [isoAS2, isoastragaloside II]: in the experiment with HaCaT cells, the “Uptake rate (glucosamine)” value was 0.9226 ± 0.0668 CPM/μg protein and the “Percentage (%)” value is recorded as 111.94%. Moreover, in the experiment with MMP-1, the “MMP-1 Q-PCR” value is on record as 0.71.

With astragaloside I [AS1], the “Uptake rate (glucosamine)” value in the experiment on HaCaT cells turned out to be 1.0482 ± 0.0560 CPM/μg protein. Besides, in the experiment with HaCaT cells, the “Percentage (%)” value was 127.18%. In addition, the “MMP-1 Q-PCR” value in the experiment on MMP-1 came out at 0.75. Also, the entries for the “Collagen III in cell” value in the experiment with collagen III (0.01 μM), in the experiment with collagen III (0.1 μM) and with collagen III (1 μM) were 1.29, 1.59 and 2.63, respectively.
